Columns and labels:
Assay type in all cases: in vivo
Conditions in all cases: 250 g/ha unless otherwise stated, evaluated after 13 days, five-point scale
[1] = system: Amaranthus retoflexus (AMARE); assay: Test 1 glasshouse herbicide test, post-emergence application (Table B1)
Experimental: (§1) Seeds of a variety of test species are sown in standard soil in pots (Lolium perenne (LOLPE), Solanum nigrum (SOLNI), Amaranthus retoflexus (AMARE), Setaria faberi (SETFA), Echinochloa crus-galli (ECHCG) and Ipomoea hederacea (IPOHE)). After cultivation for one day (pre-emergence) or after 8 days cultivation (post-emergence) under controlled conditions in a glasshouse (at 24/16° C., day/night; 14 hours light; 65% humidity), the plants are sprayed with an aqueous spray solution derived from the formulation of the technical active ingredient in acetone/water (50:50) solution containing 0.5% Tween 20 (polyoxyethelyene sorbitan monolaurate, CAS RN 9005-64-5). Compounds are applied at 250 g/ha unless otherwise stated. The test plants are then grown in a glasshouse under controlled conditions in a glasshouse (at 24/16° C., day/night; 14 hours light; 65% humidity) and watered twice daily. After 13 days for pre and post-emergence, the test is evaluated for the percentage damage caused to the plant. The biological activities (% phytotoxicity) are shown in Tables B1 and B2 below using a five-point scale (5=81 to 100%; 4=61 to 80%; 3=41 to 60%; 2=21 to 40%; 1=0 to 20%).

[2] = system: Echinochloa crus-galli (ECHCG); assay: as above
Experimental: as §1

[3] = system: Ipomoea hederacea (IPOHE); assay: as above
Experimental: as §1

Setaria faberi (SETFA) [4] = assay: as above
Experimental: as §1

[5] = system: Amaranthus retoflexus (AMARE); assay: Test 1 glasshouse herbicide test, pre-emergence application (Table B2)
Experimental: as §1

[6] = system: Echinochloa crus-galli (ECHCG); assay: as above
Experimental: as §1

[7] = system: Ipomoea hederacea (IPOHE); assay: as above
Experimental: as §1

Setaria faberi (SETFA) [8] = assay: as above
Experimental: as §1

SMILES | % phytotoxicity AMARE, post-emergence application [1] | % phytotoxicity ECHCG, post-emergence application [2] | % phytotoxicity IPOHE, post-emergence application [3] | % phytotoxicity SETFA, post-emergence application (Setaria faberi (SETFA) [4]) | % phytotoxicity AMARE, pre-emergence application [5] | % phytotoxicity ECHCG, pre-emergence application [6] | % phytotoxicity IPOHE, pre-emergence application [7] | % phytotoxicity SETFA, pre-emergence application (Setaria faberi (SETFA) [8])
CCC(C)Sc1ccccc1Oc1ncc(Cl)cn1 (racemic) [Compound A65] | 1 (1=0 to 20%) | 4 (4=61 to 80%) | 3 (3=41 to 60%) | 3 (3=41 to 60%) | 3 (3=41 to 60%) | 4 (4=61 to 80%) | 1 (1=0 to 20%) | 4 (4=61 to 80%)
CCCC(C)CSc1ccccc1Oc1ncc(Cl)cn1 (racemic) [Compound A69] | 4 (4=61 to 80%) | 4 (4=61 to 80%) | 1 (1=0 to 20%) | 2 (2=21 to 40%) | 1 (1=0 to 20%) | 3 (3=41 to 60%) | 1 (1=0 to 20%) | 4 (4=61 to 80%)
CCCC(C)CS(=O)(=O)c1ccccc1Oc1ncc(Cl)cn1 (racemic) [Compound A74] | 3 (3=41 to 60%) | 1 (1=0 to 20%) | 1 (1=0 to 20%) | 1 (1=0 to 20%) | 1 (1=0 to 20%) | 1 (1=0 to 20%) | 1 (1=0 to 20%) | 1 (1=0 to 20%)
CCCCS(=O)(=O)c1ccccc1Oc1ncc(Cl)cn1 [Compound A20] | 2 (2=21 to 40%) | 2 (2=21 to 40%) | 1 (1=0 to 20%) | 3 (3=41 to 60%) | 3 (3=41 to 60%) | 4 (4=61 to 80%) | 1 (1=0 to 20%) | 4 (4=61 to 80%)
CCCCSc1ccccc1Oc1ncc(Cl)cn1 [Compound A21] | 4 (4=61 to 80%) | 4 (4=61 to 80%) | 3 (3=41 to 60%) | 4 (4=61 to 80%) | 4 (4=61 to 80%) | 5 (5=81 to 100%) | 2 (2=21 to 40%) | 5 (5=81 to 100%)
CCCC[S+]([O-])c1ccccc1Oc1ncc(Cl)cn1 (centres unmarked) [Compound A22] | 3 (3=41 to 60%) | 4 (4=61 to 80%) | 2 (2=21 to 40%) | 4 (4=61 to 80%) | 4 (4=61 to 80%) | 5 (5=81 to 100%) | 5 (5=81 to 100%) | 5 (5=81 to 100%)
CCCC(C)Sc1ccccc1Oc1ncc(Cl)cn1 (centres unmarked) [Compound A33] | 3 (3=41 to 60%) | 2 (2=21 to 40%) | 1 (1=0 to 20%) | 2 (2=21 to 40%) | 1 (1=0 to 20%) | 1 (1=0 to 20%) | 1 (1=0 to 20%) | 3 (3=41 to 60%)
N#Cc1ccc(CSc2ccccc2Oc2ncc(Cl)cn2)cc1 [Compound A36] | 5 (5=81 to 100%) | 3 (3=41 to 60%) | 3 (3=41 to 60%) | 4 (4=61 to 80%) | 5 (5=81 to 100%) | 4 (4=61 to 80%) | 2 (2=21 to 40%) | 5 (5=81 to 100%)
Cl/C=C/CSc1ccccc1Oc1ncc(Cl)cn1 [Compound A37] | 4 (4=61 to 80%) | 2 (2=21 to 40%) | 2 (2=21 to 40%) | 2 (2=21 to 40%) | 4 (4=61 to 80%) | 4 (4=61 to 80%) | 1 (1=0 to 20%) | 3 (3=41 to 60%)
O=S(=O)(C/C=C/Cl)c1ccccc1Oc1ncc(Cl)cn1 [Compound A38] | 2 (2=21 to 40%) | 1 (1=0 to 20%) | 3 (3=41 to 60%) | 1 (1=0 to 20%) | 2 (2=21 to 40%) | 1 (1=0 to 20%) | 1 (1=0 to 20%) | 1 (1=0 to 20%)
N#Cc1cccc(Oc2ncc(Cl)cn2)c1SCCCCC(F)(F)F [Compound A39] | 5 (5=81 to 100%) | 5 (5=81 to 100%) | 3 (3=41 to 60%) | 5 (5=81 to 100%) | 5 (5=81 to 100%) | 5 (5=81 to 100%) | 2 (2=21 to 40%) | 5 (5=81 to 100%)
O=S(=O)(CC(F)(F)F)c1ccccc1Oc1ncc(Cl)cn1 [Compound A78] | – | – | – | – | 3 (3=41 to 60%) | 1 (1=0 to 20%) | 1 (1=0 to 20%) | 1 (1=0 to 20%)
